From ChEMBL document CHEMBL1128348, “Potent non-peptide fibrinogen receptor antagonists which present an alternative pharmacophore” (J Med Chem, 1995) come the findings set out here.

For test [1], the target named is Integrin alpha-IIb/beta-3 (Homo sapiens, UniProt P05106+P08514). The test can be described thus: Inhibition of [3H]-SKF- 107260 binding to purified alphaIIb-beta3 integrin of human platelets.
Test [2] is filed under the species Homo sapiens. The experiment in a line: Antiaggregatory activity against human platelet-rich plasma induced by ADP. The format is functional, organism-based.

Sequence of Integrin alpha-IIb/beta-3 (P05106 27-788 limits assumed): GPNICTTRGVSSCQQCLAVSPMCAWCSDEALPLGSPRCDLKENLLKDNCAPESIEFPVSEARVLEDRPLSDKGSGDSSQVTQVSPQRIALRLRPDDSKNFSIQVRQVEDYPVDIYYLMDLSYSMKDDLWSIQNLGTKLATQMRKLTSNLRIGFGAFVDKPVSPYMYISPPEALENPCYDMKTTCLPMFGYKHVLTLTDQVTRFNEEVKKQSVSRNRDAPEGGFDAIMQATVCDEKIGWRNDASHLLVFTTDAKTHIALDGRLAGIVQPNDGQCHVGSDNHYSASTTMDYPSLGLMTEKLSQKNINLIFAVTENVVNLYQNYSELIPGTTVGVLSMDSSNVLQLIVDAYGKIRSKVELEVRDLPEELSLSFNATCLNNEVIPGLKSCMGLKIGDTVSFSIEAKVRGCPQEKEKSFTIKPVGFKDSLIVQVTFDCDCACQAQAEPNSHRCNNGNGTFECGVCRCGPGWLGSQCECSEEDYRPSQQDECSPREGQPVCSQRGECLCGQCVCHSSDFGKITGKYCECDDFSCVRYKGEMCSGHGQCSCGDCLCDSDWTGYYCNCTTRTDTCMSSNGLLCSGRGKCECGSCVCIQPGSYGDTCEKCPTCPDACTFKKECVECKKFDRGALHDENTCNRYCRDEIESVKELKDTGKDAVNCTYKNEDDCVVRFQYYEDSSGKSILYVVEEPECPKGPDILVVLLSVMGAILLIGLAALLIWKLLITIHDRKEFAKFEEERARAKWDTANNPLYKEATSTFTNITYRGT
Sequence of Integrin alpha-IIb/beta-3 (P08514 32-887 limits assumed): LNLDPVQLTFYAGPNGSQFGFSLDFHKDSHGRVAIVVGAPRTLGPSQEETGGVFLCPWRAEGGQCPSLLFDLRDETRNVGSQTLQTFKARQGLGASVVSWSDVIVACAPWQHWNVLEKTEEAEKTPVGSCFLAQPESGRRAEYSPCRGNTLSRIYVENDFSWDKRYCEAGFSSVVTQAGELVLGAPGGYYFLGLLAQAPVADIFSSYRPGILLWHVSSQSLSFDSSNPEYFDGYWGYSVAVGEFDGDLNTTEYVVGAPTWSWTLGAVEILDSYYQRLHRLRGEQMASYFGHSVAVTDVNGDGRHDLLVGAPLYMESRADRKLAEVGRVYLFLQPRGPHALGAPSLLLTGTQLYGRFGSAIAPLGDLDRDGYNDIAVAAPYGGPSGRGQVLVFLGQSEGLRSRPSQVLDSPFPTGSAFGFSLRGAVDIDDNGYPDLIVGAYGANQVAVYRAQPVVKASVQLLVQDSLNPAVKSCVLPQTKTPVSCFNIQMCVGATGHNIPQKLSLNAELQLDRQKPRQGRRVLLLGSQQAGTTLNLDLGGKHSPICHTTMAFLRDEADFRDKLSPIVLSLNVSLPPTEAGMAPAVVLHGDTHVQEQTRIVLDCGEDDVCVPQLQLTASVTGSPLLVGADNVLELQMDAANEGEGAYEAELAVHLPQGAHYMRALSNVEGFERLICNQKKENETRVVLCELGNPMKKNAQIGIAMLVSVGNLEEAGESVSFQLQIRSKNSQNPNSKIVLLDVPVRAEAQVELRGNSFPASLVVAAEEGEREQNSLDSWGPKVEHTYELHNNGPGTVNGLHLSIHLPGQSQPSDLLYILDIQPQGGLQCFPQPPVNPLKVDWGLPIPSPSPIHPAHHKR
Sequence of Integrin alpha-IIb/beta-3 (P08514 891-1039 limits assumed): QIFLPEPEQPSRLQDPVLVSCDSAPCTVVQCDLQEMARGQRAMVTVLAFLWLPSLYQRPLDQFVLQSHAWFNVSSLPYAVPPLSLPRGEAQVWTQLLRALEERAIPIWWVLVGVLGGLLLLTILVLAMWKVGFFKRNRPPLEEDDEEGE

In the case of `N=C(N)c1ccc(NC(=O)c2ccc3c(c2)NC(CC(=O)O)C(=O)N(CCc2ccccc2)C3)cc1` (configuration not stated), affinity in test [1] was put at a Ki of 0.0023 µM. Also, the IC50 in test [2] stood at 0.15 µM.
`N=C(N)NCCC[C@@H]1NC(=O)[C@@H]2CCCN2C(=O)[C@H]2CCCN2C(=O)CNC(=O)[C@H](CC(=O)O)NC(=O)CNC1=O` gave a Ki in test [1] of 1.9 µM. In addition, in test [2], the IC50 was determined as 5.26 µM.
For the compound `N=C(N)c1ccc(NC(=O)c2ccc3c(c2)CN(CCc2ccccc2)C(=O)C(CC(=O)O)N3)cc1` (configuration not stated), the affinity in test [1] corresponds to a Ki of 0.026 µM. The compound further registered an IC50 in test [2] of 0.38 µM.
Turning to `CN1C(=O)c2ccccc2SSc2ccccc2NC(=O)[C@H](CC(=O)O)NC(=O)CNC(=O)[C@@H]1CCCN=C(N)N` [SKF-107260], it took 0.09 µM to reach half-maximal inhibition in test [2] (IC50).

As usually defined, the Ki is a measure of affinity in units of concentration, obtained from inhibition or displacement. Read a high Ki as lower affinity. What is called IC50 is the concentration at which inhibition is half-maximal. A high value points to weaker potency in that assay.
